Assay results reported in PubChem BioAssay AID330 (DTP/NCI, 2004).
Values joined by “and” are separate entries in the source; they are usually repeats but may differ in a detail not shown here. Identical values can stand only once. Toxic doses and inconclusive results are not listed.

Tested on: P388 leukemia ip, CD2F1 mice, survival T/C
Assay: NCI In Vivo Anticancer Drug Screen. Data for tumor model P388 Leukemia (intraperitoneal) in CD2F1 (CDF1) mice
Settings: endpoint: median survival time, higher = longer survival
Outline: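 Mice carrying the transplanted tumor received test compound or vehicle. Survival was recorded in each group, and the value is the treated-group measurement divided by that of the vehicle-treated control group.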

[1] = dose: 50.0 mg/kg/injection, schedule: Q01DX005 (ip), vehicle: Klucel (hydroxypropylcellulose) (HPC)
[2] = dose: 100.0 mg/kg/injection, schedule: Q01DX005 (ip), vehicle: Klucel (hydroxypropylcellulose) (HPC)
[3] = dose: 200.0 mg/kg/injection, schedule: Q01DX005 (ip), vehicle: Klucel (hydroxypropylcellulose) (HPC)
[4] = dose: 50.0 mg/kg/injection, schedule: Q01DX009 (ip), vehicle: saline
[5] = dose: 100.0 mg/kg/injection, schedule: Q01DX009 (ip), vehicle: saline
[6] = dose: 200.0 mg/kg/injection, schedule: Q01DX009 (ip), vehicle: saline
[7] = dose: 60.0 mg/kg/injection, schedule: Q01DX005 (ip), vehicle: saline with Tween-80
[8] = dose: 120.0 mg/kg/injection, schedule: Q01DX005 (ip), vehicle: saline with Tween-80
[9] = dose: 240.0 mg/kg/injection, schedule: Q01DX005 (ip), vehicle: saline with Tween-80
[10] = dose: 50.0 mg/kg/injection, schedule: Q01DX005 (ip), vehicle: saline with Tween-80
[11] = dose: 100.0 mg/kg/injection, schedule: Q01DX005 (ip), vehicle: saline with Tween-80
[12] = dose: 200.0 mg/kg/injection, schedule: Q01DX005 (ip), vehicle: saline with Tween-80
[13] = dose: 100.0 mg/kg/injection, schedule: Q01DX009 (ip), vehicle: saline with Tween-80
[14] = dose: 200.0 mg/kg/injection, schedule: Q01DX009 (ip), vehicle: saline with Tween-80

Compound: Cc1ccc(S(=O)(=O)CC2CCc3ccccc3C2=O)cc1 (centres undefined)
- T/C (dose: 100.0 mg/kg/injection, schedule: Q04DX002 (ip), vehicle: saline): 107 % of control
- T/C (dose: 200.0 mg/kg/injection, schedule: Q04DX002 (ip), vehicle: saline): 101 % of control
- T/C (dose: 400.0 mg/kg/injection, schedule: Q04DX002 (ip), vehicle: saline): 104 % of control

Compound: CCC1SC2=NCCN2C1(O)c1ccc(Cl)cc1 (centres undefined)
- T/C (dose: 60.0 mg/kg/injection, schedule: Q01DX005 (ip), vehicle: Klucel (hydroxypropylcellulose) (HPC)): 96 % of control
- T/C (dose: 120.0 mg/kg/injection, schedule: Q01DX005 (ip), vehicle: Klucel (hydroxypropylcellulose) (HPC)): 95 % of control
- T/C (dose: 240.0 mg/kg/injection, schedule: Q01DX005 (ip), vehicle: Klucel (hydroxypropylcellulose) (HPC)): 89 % of control

Compound: Nc1nc(Br)nc2c1ncn2C1CC(O)C(CO)O1 (centres undefined)
- T/C (dose: 1.5 mg/kg/injection, schedule: Q01DX005 (ip), vehicle: suspension in saline): 118 % of control
- T/C (dose: 3.0 mg/kg/injection, schedule: Q01DX005 (ip), vehicle: suspension in saline): 121 % of control
- T/C (dose: 15.0 mg/kg/injection, schedule: Q01DX005 (ip), vehicle: suspension in saline): 108 % of control
- T/C (dose: 15.0 mg/kg/injection, schedule: Q03HX009 (ip), vehicle: saline): 153 % of control and 155 % of control
- T/C (dose: 30.0 mg/kg/injection, schedule: Q03HX009 (ip), vehicle: saline with Tween-80): 164 % of control
- T/C (dose: 30.0 mg/kg/injection, schedule: Q03HX009 (ip), vehicle: saline): 167 % of control and 181 % of control
- T/C (dose: 60.0 mg/kg/injection, schedule: Q01DX005 (ip), vehicle: suspension in saline): 117 % of control
- T/C (dose: 60.0 mg/kg/injection, schedule: Q03HX009 (ip), vehicle: saline with Tween-80): 155 % of control
- T/C (dose: 60.0 mg/kg/injection, schedule: Q03HX009 (ip), vehicle: saline): 165 % of control and 172 % of control
- T/C (dose: 120.0 mg/kg/injection, schedule: Q01DX005 (ip), vehicle: suspension in saline): 122 % of control
- T/C (dose: 120.0 mg/kg/injection, schedule: Q03HX009 (ip), vehicle: saline with Tween-80): 157 % of control
- T/C (dose: 120.0 mg/kg/injection, schedule: Q03HX009 (ip), vehicle: saline): 172 % of control

Compound: O=CNNc1ccc2nnc(Cl)n2n1
- T/C (dose: 100.0 mg/kg/injection, schedule: Q04DX003 (ip), vehicle: saline): 101 % of control
- T/C (dose: 200.0 mg/kg/injection, schedule: Q04DX003 (ip), vehicle: saline): 97 % of control
- T/C (dose: 400.0 mg/kg/injection, schedule: Q04DX003 (ip), vehicle: saline): 93 % of control

Compound: CC(O)C(C(c1ccccc1)N1CCOCC1)N1CCOCC1 (centres undefined)
- T/C [1]: 99 % of control
- T/C [2]: 90 % of control
- T/C [3]: 98 % of control

Compound: COc1cccc2c1C(=O)c1c(O)c3c(c(O)c1C2=O)CC(O)(/C=N/NS(=O)(=O)c1ccc(C)cc1)CC3OC1CC(N)C(O)C(C)O1 (centres undefined)
- T/C (dose: 6.25 mg/kg/injection, schedule: Q01DX009 (ip), vehicle: other): 153 % of control
- T/C (dose: 12.5 mg/kg/injection, schedule: Q01DX009 (ip), vehicle: other): 178 % of control
- T/C (dose: 25.0 mg/kg/injection, schedule: Q01DX009 (ip), vehicle: other): 93 % of control

Compound: OCc1ncccc1O
- T/C (dose: 25.0 mg/kg/injection, schedule: Q01DX009 (ip), vehicle: saline): 99 % of control and 109 % of control
- T/C [4]: 108 % of control and 100 % of control and 106 % of control
- T/C [5]: 90 % of control and 102 % of control and 104 % of control
- T/C [6]: 110 % of control and 111 % of control and 97 % of control

Compound: C1CN2CCO[Si](CC[Si]34OCCN(CCO3)CCO4)(O1)OCC2
- T/C [1]: 106 % of control
- T/C [2]: 113 % of control
- T/C [3]: 94 % of control

Compound: CC(C)(C)OOC(=O)c1ccc2ccccc2c1
- T/C [7]: 109 % of control
- T/C [8]: 97 % of control
- T/C [9]: 93 % of control

Compound: NCCCCC(C(=O)NC(Cc1ccc(O)cc1)C(=O)NC(CO)C(=O)OCc1ccc([N+](=O)[O-])cc1)N(C(=O)OCc1ccccc1)C(=O)OCc1ccccc1 (centres undefined)
- T/C [10]: 101 % of control
- T/C [11]: 100 % of control
- T/C [12]: 97 % of control

Compound: N#Cc1c2ccccc2c(=O)n2ccccc12
- T/C (dose: 100.0 mg/kg/injection, schedule: Q04DX002 (ip), vehicle: Klucel (hydroxypropylcellulose) (HPC)): 94 % of control
- T/C (dose: 200.0 mg/kg/injection, schedule: Q04DX002 (ip), vehicle: Klucel (hydroxypropylcellulose) (HPC)): 88 % of control
- T/C (dose: 400.0 mg/kg/injection, schedule: Q04DX002 (ip), vehicle: Klucel (hydroxypropylcellulose) (HPC)): 94 % of control

Compound: O=c1oc2c(c3c1CCCC3)c(=O)[nH]c1ccccc12
- T/C [1]: 111 % of control
- T/C [2]: 116 % of control
- T/C [3]: 115 % of control

Compound: C/C(O)=C(/N=Nc1ccc(-c2nc3ccc(C)c(S(=O)(=O)O)c3s2)cc1)C(=O)Nc1ccccc1
- T/C (dose: 6.25 mg/kg/injection, schedule: Q01DX009 (ip), vehicle: saline with Tween-80): 104 % of control
- T/C (dose: 12.5 mg/kg/injection, schedule: Q01DX009 (ip), vehicle: saline with Tween-80): 95 % of control
- T/C (dose: 25.0 mg/kg/injection, schedule: Q01DX009 (ip), vehicle: saline with Tween-80): 96 % of control

Compound: O=C1CSC(=S)N1C1CC1
- T/C (dose: 50.0 mg/kg/injection, schedule: Q01DX009 (ip), vehicle: saline with Tween-80): 95 % of control
- T/C [13]: 86 % of control
- T/C [14]: 87 % of control

Compound: O=C(O)c1cccc(C(=O)O)c1S(=O)(=O)c1ccccc1
- T/C (dose: 100.0 mg/kg/injection, schedule: Q01DX001 (ip), vehicle: saline with Tween-80): 99 % of control
- T/C (dose: 200.0 mg/kg/injection, schedule: Q01DX001 (ip), vehicle: saline with Tween-80): 98 % of control
- T/C (dose: 400.0 mg/kg/injection, schedule: Q01DX001 (ip), vehicle: saline with Tween-80): 95 % of control

Compound: C=C(C)CC(C)/C(=N\N(C)C)c1ccccc1 (centres undefined)
- T/C [4]: 98 % of control
- T/C [5]: 100 % of control
- T/C [6]: 100 % of control

Compound: COc1cc2ccc(CC(=S)N3CCOCC3)cc2cc1OC
- T/C [13]: 90 % of control
- T/C [14]: 90 % of control

Compound: CN(C)CC(OCCc1ccccc1)C(Cl)(Cl)Cl (centres undefined)
- T/C (dose: 50.0 mg/kg/injection, schedule: Q01DX009 (ip), vehicle: Klucel (hydroxypropylcellulose) (HPC)): 107 % of control
- T/C (dose: 100.0 mg/kg/injection, schedule: Q01DX009 (ip), vehicle: Klucel (hydroxypropylcellulose) (HPC)): 109 % of control
- T/C (dose: 200.0 mg/kg/injection, schedule: Q01DX009 (ip), vehicle: Klucel (hydroxypropylcellulose) (HPC)): 109 % of control

Compound: N#C/C(=N\NC(=O)c1cccnc1)c1ccc(Cl)cc1
- T/C [10]: 92 % of control
- T/C [11]: 92 % of control
- T/C [12]: 101 % of control

Compound: COc1cc(C2c3cc4c(cc3OC(C)(O)C2C)OCO4)cc(OC)c1OC (centres undefined)
- T/C (dose: 12.5 mg/kg/injection, schedule: Q01DX005 (ip), vehicle: saline): 104 % of control and 105 % of control
- T/C (dose: 25.0 mg/kg/injection, schedule: Q01DX005 (ip), vehicle: saline with Tween-80): 107 % of control
- T/C (dose: 25.0 mg/kg/injection, schedule: Q01DX005 (ip), vehicle: saline): 105 % of control
- T/C [10]: 103 % of control
- T/C (dose: 50.0 mg/kg/injection, schedule: Q01DX005 (ip), vehicle: saline): 102 % of control and 105 % of control
- T/C (dose: 100.0 mg/kg/injection, schedule: Q01DX005 (ip), vehicle: saline): 107 % of control and 113 % of control
- T/C (dose: 200.0 mg/kg/injection, schedule: Q01DX005 (ip), vehicle: saline): 111 % of control

Compound: O=C1[C@@H]2[C@H](C(=O)N1c1ccccc1)[C@H]1CC[C@H]2N1C(=O)c1ccccc1
- T/C [7]: 96 % of control
- T/C [8]: 100 % of control
- T/C [9]: 88 % of control

Compound: OCC1OC(C2N(c3ccccc3)CCN2c2ccccc2)C(O)C1O (centres undefined)
- T/C (dose: 12.5 mg/kg/injection, schedule: Q01DX009 (ip), vehicle: distilled water + Tween-80): 102 % of control
- T/C (dose: 25.0 mg/kg/injection, schedule: Q01DX009 (ip), vehicle: distilled water + Tween-80): 100 % of control
- T/C (dose: 50.0 mg/kg/injection, schedule: Q01DX009 (ip), vehicle: distilled water + Tween-80): 98 % of control
- T/C (dose: 100.0 mg/kg/injection, schedule: Q01DX009 (ip), vehicle: distilled water + Tween-80): 90 % of control
- T/C (dose: 200.0 mg/kg/injection, schedule: Q01DX009 (ip), vehicle: distilled water + Tween-80): 93 % of control

Compound: O=C1NC(=O)C2(CCCc3ccc(N(CCO)CCO)cc32)N1 (centres undefined)
- T/C (dose: 50.0 mg/kg/injection, schedule: Q01DX009 (ip), vehicle: DMSO): 106 % of control
- T/C (dose: 100.0 mg/kg/injection, schedule: Q01DX009 (ip), vehicle: DMSO): 103 % of control
- T/C (dose: 200.0 mg/kg/injection, schedule: Q01DX009 (ip), vehicle: DMSO): 106 % of control
